Measurements taken from US20260294857A1, “TREATMENT OF HYPOPARATHYROIDISM USING TRIPHENYL CALCILYTIC COMPOUNDS” (CALCILYTIX THERAPEUTICS, INC., priority 2023, published 2026).
Blank lines part the entries; values can stand above or below the compound they belong to.

Tests used:
[1] = thiazide discontinuation before treatment; cited from earlier work
osteoporosis = settings: late phase trials; postmenopausal women with osteoporosis; cited from earlier work
[2] = test system: calcium-sensing receptor (CaSR); settings: individuals with functioning parathyroid tissue; calcilytics (e.g., CLTX-305); cited from earlier work
[3] = molecular target: T1, calcium-sensing receptor (CaSR) (Homo sapiens, UniProt P41180); test: Ongoing open-label phase 2 proof-of-principle study in women with post-surgical hypoparathyroidism (PSH), NCT05735015; format: in vivo
T1 construct: oral CLTX-305 (encaleret) in post-surgical hypoparathyroidism subjects; clinical safety and blood calcium endpoints
T1 sequence (P41180 20-1078): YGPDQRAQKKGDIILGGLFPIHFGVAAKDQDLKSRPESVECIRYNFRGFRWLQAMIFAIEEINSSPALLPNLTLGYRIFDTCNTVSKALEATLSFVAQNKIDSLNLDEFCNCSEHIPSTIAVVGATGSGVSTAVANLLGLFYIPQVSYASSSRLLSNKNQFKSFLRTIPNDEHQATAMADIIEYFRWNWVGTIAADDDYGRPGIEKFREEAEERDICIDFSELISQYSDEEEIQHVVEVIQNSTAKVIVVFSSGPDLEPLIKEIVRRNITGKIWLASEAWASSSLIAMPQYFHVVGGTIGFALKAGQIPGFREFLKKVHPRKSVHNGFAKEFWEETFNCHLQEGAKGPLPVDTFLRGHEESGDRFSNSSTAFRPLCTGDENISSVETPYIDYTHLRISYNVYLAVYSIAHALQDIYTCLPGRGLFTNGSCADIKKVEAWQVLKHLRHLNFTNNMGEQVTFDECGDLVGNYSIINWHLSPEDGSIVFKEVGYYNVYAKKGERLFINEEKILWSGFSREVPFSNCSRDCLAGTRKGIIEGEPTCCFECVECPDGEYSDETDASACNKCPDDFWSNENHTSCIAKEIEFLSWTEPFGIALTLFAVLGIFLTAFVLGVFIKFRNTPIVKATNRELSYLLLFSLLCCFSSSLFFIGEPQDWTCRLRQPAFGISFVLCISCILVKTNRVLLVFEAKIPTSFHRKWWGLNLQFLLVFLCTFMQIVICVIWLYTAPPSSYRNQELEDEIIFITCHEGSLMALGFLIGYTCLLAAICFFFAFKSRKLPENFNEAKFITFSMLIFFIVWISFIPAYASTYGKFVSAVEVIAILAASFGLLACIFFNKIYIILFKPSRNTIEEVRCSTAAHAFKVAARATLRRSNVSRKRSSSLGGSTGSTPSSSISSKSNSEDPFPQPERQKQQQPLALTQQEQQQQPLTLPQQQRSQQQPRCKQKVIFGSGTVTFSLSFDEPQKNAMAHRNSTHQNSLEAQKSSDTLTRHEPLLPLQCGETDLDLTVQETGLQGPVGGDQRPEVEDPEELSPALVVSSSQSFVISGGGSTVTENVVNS
Excerpt: Title: Phase 2 study of the PTH-independent Effects of formula (I) (e.g., CLTX-305) on Mineral Homeostasis in subjects with post-surgical hypoparathyroidism (PSH).
Study Description: This will be a single-site, proof-of-principle, open-label study to explore the PTH-independent effects of formula (I) (e.g., CLTX-305) on calcium homeostasis in subjects with low or undetectable PTH levels as a result of neck surgery (PSH).
Primary Endpoint: Percent change in Fractional Excretion of Calcium (FECa) from baseline (Day −1) to the final day of treatment (Day 6 or the last measurement while on formula (I) (e.g., CLTX-305)). FECa calculated using fasting blood levels and spot urine collection.
Secondary Endpoints: Proportion of subjects who achieve a concomitant normal fasting blood calcium (albumin-corrected calcium >8.5 mg/dL) and a normal 24-hour urinary calcium level (<250 mg/24 hours for women, <300 mg/24 hours for men) on formula (I) (e.g., CLTX-305) at any point between day 1 and day 5.
• Change in blood iPTH comparing average baseline iPTH to average peak iPTH on formula (I) (e.g., CLTX-305). The average baseline iPTH will include all baseline iPTH levels from the screening visit, Day −1, and pre-dose on Day 1. The average peak iPTH will average the peak iPTH levels on every day the subject is on formula (I) (e.g., CLTX-305) (days 1 to 5). An increase in iPTH will be considered clinically significant if there is an increase both by 50% AND by more than […]. • Change in 1,25-(OH)2 Vitamin D on formula (I) (e.g., CLTX-305) comparing the maximal level prior to receiving calcitriol (On Days 3-5) to baseline (Average of Day 1 Pre-dose levels). Increase will be considered significant if there is an increase of more than 50%. Subjects who receive calcitriol prior to Day 3 will be excluded. • Percent change in Fractional Excretion of Calcium (FECa) from baseline […] to the final day of treatment (Day 6 or the last measurement while n encaleret). FECa calculated using fasting blood levels and spot urine collection. • Pharmacodynamic endpoints measured over 5 days of formula (I) (e.g., CLTX-305) therapy: • Blood iPTH—Absolute levels and change from baseline • Albumin-corrected blood calcium—Absolute levels and change from baseline • Ionized Calcium—Absolute levels and change from baseline • Urinary calcium clearance (fractional excretion and 24-hour total excretion)—Absolute levels and change from baseline • Serum levels of 1,25-(OH)2 Vitamin D—Absolute levels and change from baseline • Blood intact FGF23 (iFGF23) and C-terminal FGF23 (cFGF23)—Absolute levels and change from baseline • Urine cAMP and citrate—Absolute levels and change from baseline • Blood bone resorption marker, collagen cross-linked C-telopeptide (CTx)—Absolute levels and change from baseline • Blood bone formation marker, blood procollagen type 1 N-propeptide (P1NP)—Absolute levels and change from baseline • Change in components of urine including: supersaturation, sodium, potassium, calcium, magnesium, chloride, phosphorus, sulfate, citrate excretion, oxalate, pH, uric acid, creatinine, osmolality, ammonium, urea nitrogen, protein catabolic rate • PK parameters such as maximum plasma concentration Cmax), time to maximum plasma concentration (tmax), apparent terminal half-life (t½) • Subgroup analysis of other primary, secondary, and tertiary endpoints
Intervention: CLTX-305 will be provided as an oral film-coated tablet. Each tablet contains 54 mg of formula (I) on a salt-free and anhydrous basis (i.e., 60 mg of CLTX-305). Subjects will receive 3 tablets twice a day (BID).
The investigational medicinal product (IMP), formula (I) (e.g., CLTX-305), will be provided as film-coated tablets containing the active ingredient formula (I) on a salt-free and anhydrous basis provided in 54 mg dosage strength. Subjects will receive active ingredient formula (I) 162 mg (i.e., 180 mg CLTX-305) (3 tablets) BID per protocol with water. […]

SMILES: NS(=O)(=O)c1cc2c(cc1Cl)NCNS2(=O)=O [hydrochlorothiazide]
- 5 half-lives [1]: 75 h

- PTH after transient increase ([3]; after the 30 minutes increase, baseline 7.4 pg/mL, n=4): returned to near baseline levels
- FECa, effect in words ([3]; first four participants with PSH): reduced FECa
- Bone turnover markers ([3]; four women with PSH, 162 mg every 12 hours, up to 10 doses): normal and did not change
- PTH, transient increase ([3]; mean (range), 30 minutes after the first dose, baseline 7.4 pg/mL (range 4.6-10.1; nl 15-65), n=4): 13.0 (4.5-18.1) pg/mL
- Decrease in fractional excretion of calcium (FECa) ([3]; mean (range), fasting, 12 hours after last dose vs fasting baseline pre-dose, four women with PSH, CLTX-305 162 mg every 12 hours for up to 10 doses): 52% (34-78)
- Albumin-corrected blood calcium ([3]; mean (range), fasting, 12 hours after last dose, baseline 8.4 mg/dL (range 8.1-8.6; nl 8.4-10.2), 162 mg every 12 hours, up to 10 doses, n=4): 9.3 (8.6-10.7) mg/dL
- Urinary calcium excretion ([3]; mean (range), on treatment, baseline 348 mg/day (range 204-501; nl<250), 162 mg every 12 hours, up to 10 doses, n=4): 169 (76-350) mg/day
- Participants who discontinued calcium supplementation to maintain eucalcemia ([3]; of four women with PSH, all received calcium supplementation initially): 1 participant
- Participants who required re-initiation of low-dose calcitriol to maintain eucalcemia ([3]; of four women with PSH, calcitriol 0.25 mcg daily): 3
- Normalization of urinary calcium excretion ([3]; of four women with PSH, nl<250 mg/day): 3 participants
- 24-hour urine calcium despite elevated blood calcium ([3]; one participant with mild hypercalcemia): < 200 mg/day
- Time for which blood calcium continued to be mildly elevated after the last dose ([3]; one participant with mild hypercalcemia, calcium and calcitriol supplementation discontinued): 60 h
- Decrease in urinary calcium excretion in the fourth participant ([3]; one participant without normalization, 162 mg every 12 hours, up to 10 doses): 30%
SMILES: Cc1cc(-c2ccccc2[C@@H](C)OC[C@H](O)CNC(C)(C)Cc2ccc(Cl)c(F)c2)ccc1C(=O)O [CLTX-305]
- Bone mineral density (BMD) efficacy (osteoporosis): failed to demonstrate efficacy on endpoints of bone mineral density (BMD)
- Blood calcium levels, in words [2]: increased blood calcium levels
- PTH secretion [2]: increase PTH secretion
- Urinary calcium excretion, in words [2]: decrease urinary calcium excretion
- Serious adverse events ([3]; four women with PSH): no serious adverse events reported
- Treatment-related adverse events (AEs) ([3]; four women with PSH): mild hypercalcemia causing headache in 1 participant

SMILES: NS(=O)(=O)c1cc2c(cc1Cl)N=CNS2(=O)=O [chlorothiazide]
- 5 half-lives [1]: 10 h

SMILES: NS(=O)(=O)c1cc(C2(O)NC(=O)c3ccccc32)ccc1Cl (stereo not shown) [chlorthalidone]
- 5 half-lives [1]: 300 h
